Experimental findings from patent US12497408B2, “Tetracyclic compounds and methods for the treatment of Zika virus infection” (priority 2021, dated 2025) are described below.

Structures are written as SMILES.

The subject of one test is ZIKV. Briefly: ZIKV reporter virus-based antiviral screening on Huh7 cells. The format is cell-based, Zika virus. Particulars: Huh7 cells infected with recombinant luciferase reporter ZIKV (MOI about 0.1), 48 hrs, luciferase signal. An excerpt: Protocol for ZIKV reporter virus-based antiviral screening on Huh7 cells:
• Human hepatocyte-derived carcinoma cell line (Huh7) 2. Reagents • ViviRen™ Live Cell Substrate (Promega, Cat #E6492) or Nano Glo assay system (Promega: N1130) • White opaque 96-well TC-treated microplates (Corning, Cat #3916) • 96-well Clear V-Bottom TC-treated Microplate (Corning, Cat #3894) • Complete cell culture media: DMEM (Gibco, Cat #10569) supplemented with 10% FBS (HyClone, Cat #SH30071.03IH25-40)+1% MEM Non-Essential Amino Acids Solution 100×(Gibco, Cat #11140050)+1% Penicillin-Streptomycin (10,000 U/mL) (Gibco, Cat #15140122). • Assay media: DMEM media (Gibco, Cat #31053028) supplemented with 2% FBS, 2% GlutaMAX™ Supplement (Gibco Cat #35050061), 1% Sodium Pyruvate solution (Gibco, Cat #11360070), 1% MEM Non-Essential Amino Acids Solution 100× and 1% Penicillin-Streptomycin (10,000 U/mL). • Trypsin-EDTA solution (Gibco, Cat #25200056) 3. Virus • Recombinant ZIKV strain with Renilla luciferase gene (strain FSS-Rlu) or Nano luciferase gene (Strain PRV-Nano, Dakar-Nano) 4. Instruments • BioTek Cytation 5 or other plate-readers for chemiluminescence detection model. • Eppendorf plate centrifuge • Plate shaker • Eppendorf multichannel pipettes Procedures Day 1: Preparation of Cells • Human hepatocyte-derived carcinoma cell line (Huh7) cells were detached from a T-175 flask by using a Trypsin-EDTA solution. The detached cells were suspended in complete culture media in a sterile 50-ml conical tube. • The 50-ml conical tube was centrifuged at 1200×rpm for 3 min at room temperature. • The cells were resuspended in assay media. The cell numbers were counted, and the cells diluted to a density of 3×10^5 cells/ml. • The cells were plated at 50 μl cells per well in White opaque 96-well plates (assay plates). Gently shake the plates to ensure cells to attach to the plate evenly. • The plated cells were incubated in a humidified incubator (37° C. with 5% CO2). Day 2: Infection • 1) Nine serial (2-fold or 3-fold) concentrated compounds were prepared using 90% DMSO solution and DMSO controls in a clear V-bottom 96-well plate (compound plate). • For example:
• 2) The reporter virus stock was diluted to a concentration of 3×10^4 FFU (FFU: focus-forming unit)/ml using the assay media. 200 μl diluted virus per well was aliquoted into a clear V-bottom 96-well plate (mixing plate). • 3) 1 μl above 400×concentrated compound dilutions was added from the compound plate to each well of the mixing plate. The plates were shaken on a plate shaker for 5 min. • 4) 50 μl compound-virus mixture was added into each well of the assay plates (the MOI is about 0.1). The plates were shaken gently by mixing the virus evenly. • An example of the format for assay plate:
• control. • 5) The plates were centrifuged at 1000 rpm for 15 s. • 6) The plates were incubated at 37° C. with 5% CO2 in a humidified incubator for 48 hrs. Day 4: Read Luciferase Signals • 7) The ViviRen™ Live Cell Substrate was diluted in assay media for 3000× folds. 25 μl of diluted substrates was added into each well of the assay plates. • For Nano-Glo assay system, 50 μl diluted substrates (50×fold diluted from the stock in assay buffer) were added. • 8) The plates were incubated at room temperature for 5 min. • 9) Optimally, cell viability is measured using the Promega Cell-titer Glo kit (only used when ZIKV-Rlu was used for infection). • 10) Luciferase signals were read using the Cytation 5 with gain value of 120-150. Data Analysis • a. The luciferase signals from DMSO-treated groups (un-treated controls) were set as 100%. The relative luciferase signals were obtained by normalizing the luciferase signals from each dilution-treated group to that of the controls. • b.
For orientation: Reporter assays use an easily measured gene product as a stand-in for the process of interest.
For the molecule `COC(=O)N[C@H](C(=O)N1[C@H](c2nc(Cl)c(-c3cc4c5c(c3)OCc3cc(-c6[nH]c([C@@H]7C[C@@H]8C[C@@H]8N7C(=O)[C@@H](NC(=O)OC)C(C)C)nc6Cl)cc(c3-5)OC4)[nH]2)C[C@@H]2C[C@@H]21)C(C)C` [Compound 11, dimethyl ((2S,2′S)-((1S,1′S,3S,3′S,5S,5′S)-((5,10-dihydrochromeno[5,4,3-cde]chromene-2,7-diyl)bis(4-chloro-1H-imidazole-5,2-diyl))bis(2-azabicyclo[3.1.0]hexane-3,2-diyl))bis(3-methyl-1-oxobutane-1,2-diyl))dicarbamate], the EC50 was 9.3 nM.

Still in this test, the particulars now being: Zika virus, Huh-7, 48 h, Huh7 cells infected with recombinant luciferase reporter ZIKV (MOI about 0.1), luciferase signal.
As to `COC(=O)N[C@H](C(=O)N1C[C@H](C)C[C@H]1c1nc(Cl)c(-c2cc3c4c(c2)OCc2cc(-c5[nH]c([C@@H]6C[C@@H](C)CN6C(=O)[C@@H](NC(=O)OC)C(C)C)nc5Cl)cc(c2-4)OC3)[nH]1)C(C)C` [Compound 1, dimethyl ((2S,2′S)-((3R,3′R,5S,5′S)-((5,10-dihydrochromeno[5,4,3-cde]chromene-2,7-diyl)bis(4-chloro-1H-imidazole-5,2-diyl))bis(3-methylpyrrolidine-5,1-diyl))bis(3-methyl-1-oxobutane-1,2-diyl))dicarbamate], the EC50 turned out to be 4.2 nM. Same read-out and setting: next, `CC[C@H](C)[C@H](NC(=O)OC)C(=O)N1C[C@H](C)C[C@H]1c1nc(Cl)c(-c2cc3c4c(c2)OCc2cc(-c5[nH]c([C@@H]6C[C@@H](C)CN6C(=O)[C@@H](NC(=O)OC)[C@@H](C)CC)nc5Cl)cc(c2-4)OC3)[nH]1` [Compound 2, dimethyl ((2S,2′S,3S,3′S)-((3R,3′R,5S,5′S)-((5,10-dihydrochromeno[5,4,3-cde]chromene-2,7-diyl)bis(4-chloro-1H-imidazole-5,2-diyl))bis(3-methylpyrrolidine-5,1-diyl))bis(3-methyl-1-oxopentane-1,2-diyl))dicarbamate]: 6.5 nM; `COC(=O)N[C@H](C(=O)N1C[C@H](C)C[C@H]1c1nc(Cl)c(-c2cc3c4c(c2)OCc2cc(-c5[nH]c([C@@H]6C[C@@H](C)CN6C(=O)[C@@H](NC(=O)OC)C(C)(C)C(F)(F)F)nc5Cl)cc(c2-4)OC3)[nH]1)C(C)(C)C(F)(F)F` [Compound 3, dimethyl ((2S,2′S)-((3R,3′R,5S,5′S)-((5,10-dihydrochromeno[5,4,3-cde]chromene-2,7-diyl)bis(4-chloro-1H-imidazole-5,2-diyl))bis(3-methylpyrrolidine-5,1-diyl))bis(4,4,4-trifluoro-3,3-dimethyl-1-oxobutane-1,2-diyl))dicarbamate]: 5.2 nM.

Regarding `COC(=O)N[C@H](C(=O)N1C[C@@H](OC)C[C@H]1c1nc(Cl)c(-c2cc3c4c(c2)OCc2cc(-c5[nH]c([C@@H]6C[C@H](OC)CN6C(=O)[C@@H](NC(=O)OC)C(C)C)nc5Cl)cc(c2-4)OC3)[nH]1)C(C)C` [Compound 4, dimethyl ((2S,2′S)-((3S,3′S,5S,5′S)-((5,10-dihydrochromeno[5,4,3-cde]chromene-2,7-diyl)bis(4-chloro-1H-imidazole-5,2-diyl))bis(3-methoxypyrrolidine-5,1-diyl))bis(3-methyl-1-oxobutane-1,2-diyl))dicarbamate], the EC50 came to 19.2 nM. With `CC[C@H](C)[C@H](NC(=O)OC)C(=O)N1C[C@@H](OC)C[C@H]1c1nc(Cl)c(-c2cc3c4c(c2)OCc2cc(-c5[nH]c([C@@H]6C[C@H](OC)CN6C(=O)[C@@H](NC(=O)OC)[C@@H](C)CC)nc5Cl)cc(c2-4)OC3)[nH]1` [Compound 5, dimethyl ((2S,2′S,3S,3′S)-((3S,3′S,5S,5′S)-((5,10-dihydrochromeno[5,4,3-cde]chromene-2,7-diyl)bis(4-chloro-1H-imidazole-5,2-diyl))bis(3-methoxypyrrolidine-5,1-diyl))bis(3-methyl-1-oxopentane-1,2-diyl))dicarbamate], the concentration for a half-maximal effect (EC50) was found to be 12.4 nM. Still for that read-out and setting: next, `COC(=O)N[C@H](C(=O)N1C[C@@H](OC)C[C@H]1c1nc(Cl)c(-c2cc3c4c(c2)OCc2cc(-c5[nH]c([C@@H]6C[C@H](OC)CN6C(=O)[C@@H](NC(=O)OC)C(C)(C)C(F)(F)F)nc5Cl)cc(c2-4)OC3)[nH]1)C(C)(C)C(F)(F)F` [Compound 6, dimethyl ((2S,2′S)-((3S,3′S,5S,5′S)-((5,10-dihydrochromeno[5,4,3-cde]chromene-2,7-diyl)bis(4-chloro-1H-imidazole-5,2-diyl))bis(3-methoxypyrrolidine-5,1-diyl))bis(4,4,4-trifluoro-3,3-dimethyl-1-oxobutane-1,2-diyl))dicarbamate]: 4.9 nM; `COC(=O)N[C@H](C(=O)N1CC(C)(C)C[C@H]1c1nc(Cl)c(-c2cc3c4c(c2)OCc2cc(-c5[nH]c([C@@H]6CC(C)(C)CN6C(=O)[C@@H](NC(=O)OC)C(C)C)nc5Cl)cc(c2-4)OC3)[nH]1)C(C)C` [Compound 7, dimethyl ((2S,2′S)-((5S,5′S)-((5,10-dihydrochromeno[5,4,3-cde]chromene-2,7-diyl)bis(4-chloro-1H-imidazole-5,2-diyl))bis(3,3-dimethylpyrrolidine-5,1-diyl))bis(3-methyl-1-oxobutane-1,2-diyl))dicarbamate]: 4.2 nM.

`CC[C@H](C)[C@H](NC(=O)OC)C(=O)N1CC(C)(C)C[C@H]1c1nc(Cl)c(-c2cc3c4c(c2)OCc2cc(-c5[nH]c([C@@H]6CC(C)(C)CN6C(=O)[C@@H](NC(=O)OC)[C@@H](C)CC)nc5Cl)cc(c2-4)OC3)[nH]1` [Compound 8, dimethyl ((2S,2′S,3S,3′S)-((5S,5′S)-((5,10-dihydrochromeno[5,4,3-cde]chromene-2,7-diyl)bis(4-chloro-1H-imidazole-5,2-diyl))bis(3,3-dimethylpyrrolidine-5,1-diyl))bis(3-methyl-1-oxopentane-1,2-diyl))dicarbamate]: the EC50 stood at 4.4 nM.

Regarding `COC(=O)N[C@H](C(=O)N1CC(C)(C)C[C@H]1c1nc(Cl)c(-c2cc3c4c(c2)OCc2cc(-c5[nH]c([C@@H]6CC(C)(C)CN6C(=O)[C@@H](NC(=O)OC)C(C)(C)C(F)(F)F)nc5Cl)cc(c2-4)OC3)[nH]1)C(C)(C)C(F)(F)F` [Compound 9, dimethyl ((2S,2′S)-((5S,5′S)-((5,10-dihydrochromeno[5,4,3-cde]chromene-2,7-diyl)bis(4-chloro-1H-imidazole-5,2-diyl))bis(3,3-dimethylpyrrolidine-5,1-diyl))bis(4,4,4-trifluoro-3,3-dimethyl-1-oxobutane-1,2-diyl))dicarbamate], the concentration giving a half-maximal response (EC50) was determined as 4.6 nM. Still for that read-out and setting: next, `COC(=O)N[C@H](C(=O)N1[C@H](c2nc(Cl)c(-c3cc4c5c(c3)OCc3cc(-c6[nH]c([C@@H]7C[C@@H]8C[C@@H]8N7C(=O)[C@@H](NC(=O)OC)C(C)C)nc6Cl)cc(c3-5)OC4)[nH]2)C[C@@H]2C[C@@H]21)C(C)C` [Compound 10, dimethyl ((2S,2′S)-((1S,1′S,3S,3′S,5S,5′S)-((5,10-dihydrochromeno[5,4,3-cde]chromene-2,7-diyl)bis(4-chloro-1H-imidazole-5,2-diyl))bis(2-azabicyclo[3.1.0]hexane-3,2-diyl))bis(3-methyl-1-oxobutane-1,2-diyl))dicarbamate]: 7 nM.

What is called EC50 is the concentration giving half of the maximal effect.
